Laboratory results as given in patent US8007833B2, “Method of reducing infections and/or air embolisms associated with vascular access procedures” (Biolife, L.L.C., priority 2009, dated 2011).

Experiments:
Assay in all cases: Biofilm Eradication with Calgary Biofilm Device
Assay type in all cases: cell-based
[1] = test system: S. aureus
Text: (§1) VI. Biofilm Eradication with Calgary Biofilm Device [Innovotech]
(§2) Minimum Inhibitory Concentration (MIC) Breakpoints

[2] = test system: S. epidermidis
Text: as §1, §2

[3] = test system: P. aeruginosa
Text: as §1, §2
(§3) Minimum Bactericidal Concentration (MBC) Breakpoints
(§4) Minimum Biofilm Eradication Concentration (MBEC) Breakpoints
(§5) Minimum Concentration that Kills Biofilms with Log R of 3 or Higher

[4] = test system: MRS. aureus
Text: as §1, §3, §4, §5

[5] = test system: MRS. epidermidis
Text: as §1, §3, §4, §5

For Gentamicin, which “Minimum Inhibitory Concentration (MIC) Breakpoints” value (“Minimum Inhibitory Concentration” for short) [1] is on record?
The value was <8 µg/mL.

And the “Minimum Inhibitory Concentration” value [2]?
Its value is <8 µg/mL.

And the “Minimum Bactericidal Concentration (MBC) Breakpoints” value (“Minimum Bactericidal Concentration” for short) ([3]; P. aeruginosa)?
Its value is <8 µg/mL.

What about the “Minimum Inhibitory Concentration” value ([3]; P. aeruginosa) of the same substance?
The value was <8 µg/mL.

And the “Minimum Biofilm Eradication Concentration (MBEC) Breakpoints” value ([3]; P. aeruginosa biofilm)?
Its value is >1024 µg/mL.

And the “Minimum Concentration that Kills Biofilms with Log R of 3 or Higher” value ([3]; P. aeruginosa biofilm)?
Its value is 64 ug/mL.

What about the “Log 10 Reduction” value ([3]; P. aeruginosa biofilm, at 256 ug/mL, 128 ug/mL and 64 ug/mL) of the same substance?
Its value is “greater than three”.

What about the “Minimum Bactericidal Concentration” value ([4]; MRS. aureus) of the same substance?
The value was <16 µg/mL.

What about the “Minimum Biofilm Eradication Concentration (MBEC) Breakpoints” value ([4]; MRS. aureus biofilm) of the same substance?
The value was 1024 µg/mL.

What about the “Minimum Concentration that Kills Biofilms with Log R of 3 or Higher” value ([4]; MRS. aureus biofilm) of the same substance?
The value was 1024 ug/mL.

And the “Log 10 Reduction” value ([4]; MRS. aureus biofilm, at only 1024 ug/mL)?
The value was “greater than 3”.

What about the “Minimum Bactericidal Concentration” value ([5]; MRS. epidermidis) of the same substance?
Its value is <8 µg/mL.

And the “Minimum Biofilm Eradication Concentration (MBEC) Breakpoints” value ([5]; MRS. epidermidis biofilm)?
The value was >1024 µg/mL.

What about the “Minimum Concentration that Kills Biofilms with Log R of 3 or Higher” value ([5]; MRS. epidermidis biofilm) of the same substance?
Its value is >1024 ug/mL.

And the “Log 10 Reduction” value ([5]; MRS. epidermidis biofilm, at any concentration)?
Its value is ≤ 3.
